IC50 data for seven molecules are collected here from EP3271365B1, “BI[…] AGENTS CONTAINING THE CTI PHARMACOPHORE” (Pfizer Inc., priority 2015, dated 2016).

The IC50 is the concentration that inhibits the measured activity by half.

Holding throughout (experiment): Cytotoxicity assay for payloads (MTS cell viability)
Holding throughout (assay type): cell-based

One assay concerns HL60 (leukemia). The following applies: Homo sapiens, HL-60, 96 h, HL60 cells, incubated four days, read-out: Free Payload Potencies HL60 (IC50). As to the method:
(§1) Cancer cell lines were obtained from ATCC (Manassas, VA). N87 (human gastric carcinoma derived from metastatic liver site). HL60 (leukemia) and MDA-MB-361 DYT2 (human breast carcinoma MDA-MB-361) were grown in RPMI 1640 media . All media were supplemented with 10% fetal bovine serum, 1% sodium pyruvate, and 1% L-glutamine (Invitrogen, Grand Island, NY). Human umbilical vein endothelial cells (HUVEC) were obtained from Lonza (Allendale, NJ) and maintained in EGM2 media supplemented with EGM-2 SingleQuots (Lonza # CC-4176). All cells were maintained in a humidified incubator (37°C, 5% CO2).
(§2) Cells in 100 µl medium were cultured in a 96-well plate. Cancer cell lines treated with the indicated compounds by adding 50 µl of 3X stocks in duplicate at 10 concentrations. Cells were incubated with compounds for four days, then 30 µl of CellTiter® 96 AQueous One MTS Solution (Promega Cat # G3582) was added to the cells, incubated 1.5 hr at 37°C, then absorbance measured at 490 nm on a Victor plate reader (Perkin Elmer, Waltham, MA). Relative cell viability was determined as a percentage of untreated control wells. IC50 values were calculated using four parameter logistic model #203 with XLfit v4.2 (IDBS, Guildford, Surry, UK).

Assay [1] relates to MDA-MB-361 DYT2 (human breast carcinoma MDA-MB-361). The conditions noted are these: 96 h, MDA-MB-361 DYT2 cells, incubated four days, read-out: Free Payload Potencies DYT2 (IC50). Here is the method:
as §1, §2

The subject of assay [2] is N87 (human gastric carcinoma derived from metastatic liver site). The conditions noted are these: 96 h, N87 cells, incubated four days, read-out: Free Payload Potencies N87 (IC50). Here is the method: as §1, §2

For `CC(=O)Oc1cc2c(c3c(C)csc13)[C@H](CCl)CN2C(=O)C12CC(C(=O)N3C[C@@H](CCl)c4c3cc(OC(C)=O)c3scc(C)c43)(C1)C2` [Compound 7, (8S,8'S)-(bicyclo[1.1.1]pentane-1,3-dicarbonyl)bis(8-(chloromethyl)-1-methyl-7,8-dihydro-6H-thieno[3,2-e]indole-6,4-diyl) diacetate], the figures for the IC50 (in the assay with HL60 (leukemia); in assay [1]; in assay [2]) were less than 0.005 nM, 0.185 nM and 0.022 nM, respectively.
The matching figures for `CC(=O)Oc1cc2c(c3c(C)csc13)[C@@H](CCl)CN2C(=O)C12CC(C(=O)N3C[C@H](CCl)c4c3cc(OC(C)=O)c3scc(C)c43)(C1)C2` [Compound 12, (8R,8'R)-(bicyclo[1.1.1]pentane-1,3-dicarbonyl)bis(8-(chloromethyl)-1-methyl-7,8-dihydro-6H-thieno[3,2-e]indole-6,4-diyl) diacetate]: 0.18 nM, 5.08 nM and 2.26 nM.
The matching figures for `CC(=O)Oc1cc2c(c3sc(C)cc13)[C@H](CCl)CN2C(=O)C12CC(C(=O)N3C[C@@H](CCl)c4c3cc(OC(C)=O)c3cc(C)sc43)(C1)C2` [Compound 17, bicyclo[1.1.1]pentane-1,3-diylbis[carbonyl(8S)-8-(chloromethyl)-2-methyl-7,8-dihydro-6H-thieno[2,3-e]indole-6,4-diyl] diacetate]: 0.084 nM, 6.06 nM and 1.3 nM.
On the same counts, the results for `CC(=O)Oc1cc2c(c3c(C)csc13)[C@H](CCl)CN2C(=O)CCCC(=O)N1C[C@@H](CCl)c2c1cc(OC(C)=O)c1scc(C)c21` [Compound 24, (8S,8'S)-glutaroylbis(8-(chloromethyl)-1-methyl-7,8-dihydro-6H-thieno[3,2-e]indole-6,4-diyl) diacetate] are less than 0.005 nM, 0.171 nM and 0.024 nM.
Consider `CC(=O)Oc1cc2c(c3c(C)csc13)[C@@H](CCl)CN2C(=O)CCCC(=O)N1C[C@H](CCl)c2c1cc(OC(C)=O)c1scc(C)c21` [Compound 25, (8R,8'R)-glutaroylbis(8-(chloromethyl)-1-methyl-7,8-dihydro-6H-thieno[3,2-e]indole-6,4-diyl) diacetate], for which the concentration for half-maximal inhibition (IC50) in assay [1] is more than 100 nM; in assay [2], 41.6 nM.
Consider `Cc1csc2c(O)cc3c(c12)[C@H](CCl)CN3C(=O)CCCC(=O)N1C[C@@H](CCl)c2c1cc(O[C@@H]1O[C@H](C(=O)O)[C@@H](O)[C@H](O)[C@H]1O)c1scc(C)c21` [Compound 57, (8S)-8-(chloromethyl)-6-{5-[(8S)-8-(chloromethyl)-4-hydroxy-1-methyl-7,8-dihydro-6H-thieno[3,2-e]indol-6-yl]-5-oxopentanoyl}-1-methyl-7,8-dihydro-6H-thieno[3,2-e]indol-4-yl beta-D-glucopyranosiduronic acid], for which the IC50 in the assay with HL60 (leukemia) amounted to 0.873 nM; in assay [1] it was 37.6 nM; in assay [2] it was 11 nM.
The matching figures for `Cc1csc2c(O)cc3c(c12)[C@H](CCl)CN3C(=O)CCCC(=O)N1C[C@@H](CCl)c2c1cc(OP(=O)(O)O)c1scc(C)c21` [Compound 61, (8S)-8-(chloromethyl)-6-{5-[(8S)-8-(chloromethyl)-4-hydroxy-1-methyl-7,8-dihydro-6H-thieno[3,2-e]indol-6-yl]-5-oxopentanoyl}-1-methyl-7,8-dihydro-6H-thieno[3,2-e]indol-4-yl dihydrogen phosphate]: 0.806 nM, 28.6 nM and 13.6 nM.
